In one data set the target is SOS1 and KRAS G12D (Homo sapiens (Human), UniProt Q07889). As to the kind of experiment: KRAS::SOS1 AlphaScreen Binding Assay. Particulars: SOS1 (564-1049), KRAS G12D (1-169), GDP. The text has this:
a. KRAS::SOS1 AlphaScreen Binding Assay
Low IC50 values of given compounds are indicative of high potency of the SOS1 inhibitor compounds in this assay setting.
• GST-TEV-SOS1 (564-1049) and His-TEV-Avi-KRAS G12D (1-169) are purchased from Viva Biotech (Shanghai) Ltd. • GDP (Sigma, Cat. G7127) • AlphaLISA Glutathione Acceptor Beads (PerkinElmer, Cat. AL109C) • AlphaScreen Streptavidin Donor Beads (PerkinElmer, Cat. 6760002S) • Assay plates: ProxiPlate-384 Plus, White 384-shallow well Microplate (PerkinElmer, Cat. 6008280)
SOS1 inhibitor compounds are diluted to a final start concentration of […]. Serial dilutions of compounds are made using Tecan D300e Digital Dispenser in 9 concentrations with serial 1:3 dilutions. 100 nL of compound solution is transferred to the 384-well assay plate per well, covering a range between 1 μM and 0.15 nM minimum in duplicate. 10 nM (final assay concentration) KRAS G12D, 5 nM (final assay concentration) SOS1 and 10 μM (final assay concentration) GDP are mixed in assay buffer, and 5 μL of KRAS::SOS1 GDP mix is added into the assay plate to the 100 nL of compound solution (final dilution in the assay 1:100, final DMSO concentration 1%). After a 30 min incubation, AlphaLISA Glutathione Acceptor Beads and AlphaScreen Streptavidin Donor Beads are mixed in assay buffer at a concentration of 5 µg/mL (final assay concentration), and 5 μL of bead mix is added into the assay plate. Plates are kept at room temperature in a darkened incubator for 3 h. After a 3 h incubation, the signal is determined using Envision (PerkinElmer). The excitation wavelength is 680 nm, and emission 615 nm. IC50 values are calculated and analyzed using GraphPad Prism.

Another data set relates to NCI-H358. Nature of the data set: Cell proliferation assay, 3D, CellTiter-Glo 3D. It counts as cell-based, human. Particulars: for IC50: Homo sapiens, read-out: anit-prolif. H358 IC50. The protocol: b. Cell Proliferation Assay
Low IC50 values are indicative of high potency of the compounds in this assay setting.
Cell proliferation assay is performed in three-dimensional (3D) ultra-low conditions with the human cell line NCI-H358, a human non-small cell lung cancer (NSCLC) cell line with a KRAS G12C mutation.
• 96-well Clear Round Bottom Ultra-Low Attachment Microplate (Corning, Cat. 7007) • 96-well Flat Clear Bottom White Polystyrene TC-treated Microplates (Corning, Cat. 3610) • RPMI-1640 Medium (Gibco, Cat. 22400105) • Fetal Bovine Serum (FBS) (Gibco, Cat. 10099141C) • 0.25% Trypsin-EDTA (Gibco, Cat. 25200056) • Penicillin-Streptomycin (Gibco, Cat. 15140122) • CellTiter-Glo 3D Cell Viability Assay (Promega, Cat. G9683)
NCI-H358 cells (ATCC, Cat. CRL-5807) are grown in cell culture flasks using RPMI medium supplemented with 10% FBS. Cells are incubated at 37° C. and 5% C02 in a humidified atmosphere, with sub-cultivation performed twice a week. Cells are trypsinized, counted and plated in 96-well ultra-low adhesion plates for 3D cell viability determination. The day after plating, serial dilutions of SOS1 inhibitor compounds are made using Tecan D300e Digital Dispenser to evaluate a concentration-dependent effect on cell viability. The concentration of the test compounds covers a range between 5 μM and 0.76 nM with serial 1:3 dilutions in 9 concentrations. 0.5 μL serial dilutions of the compounds are added in duplicates. 3 days later, the CellTiter-Glo 3D Cell Viability Assay is used to measure cell viability effects of SOS1 inhibitor compounds in 3D format. Luminescent intensity is determined using Envision (PerkinElmer). Data is analyzed and IC50 values are calculated using GraphPad Prism.

Data set [1] is described as follows: Human liver microsomal stability. It counts as in vitro ADME. Particulars: for half-life: human liver microsomes, read-out: Human liver microsomal stability, T1/2; for stability in human liver microsomal assay: in words, compound I-18 vs present compounds.
The mark [2] stands for this setting: 72 h, NCI-H358 (KRAS G12C), 3D ultra-low attachment, 3 days.

Results on 18 molecules are retold here after US20240051956A1, “SOS1 INHIBITORS AND USES THEREOF” (QILU REGOR THERAPEUTICS INC., priority 2020, published 2024).

Structures are written as SMILES. Read-outs that look alike come from different tables or passages of the source.

SOS1 and KRAS G12D, sequence (Q07889 564-1049, stated change not applied): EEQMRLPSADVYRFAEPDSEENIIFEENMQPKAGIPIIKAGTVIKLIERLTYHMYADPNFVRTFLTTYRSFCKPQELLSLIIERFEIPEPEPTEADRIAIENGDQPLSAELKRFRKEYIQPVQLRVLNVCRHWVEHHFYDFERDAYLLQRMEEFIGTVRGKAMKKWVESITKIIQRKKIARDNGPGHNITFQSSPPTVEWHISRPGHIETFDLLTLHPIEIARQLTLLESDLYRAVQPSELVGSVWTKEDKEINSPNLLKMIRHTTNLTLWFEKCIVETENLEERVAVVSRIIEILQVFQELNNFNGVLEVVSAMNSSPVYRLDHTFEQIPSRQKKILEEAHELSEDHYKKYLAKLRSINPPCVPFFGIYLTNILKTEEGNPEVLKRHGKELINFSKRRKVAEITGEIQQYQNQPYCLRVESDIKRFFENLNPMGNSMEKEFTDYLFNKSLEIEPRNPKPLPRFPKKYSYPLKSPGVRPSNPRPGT

The IC50 is the concentration that inhibits the measured activity by half. Take `Cc1nc(N[C@H](C)c2cccc(C(F)(F)F)c2C)c2cn(N3CCOCC3)c(=O)cc2n1` [Example 17, (R)-2-methyl-4-((1-(2-methyl-3-(trifluoromethyl)phenyl)ethyl)amino)-6-morpholinopyrido[4,3-d]pyrimidin-7(6H)-one]: the half-maximal inhibitory concentration (IC50) on SOS1 and KRAS G12D was at most 15 nM; with NCI-H358 (setting [2]), at most 100 nM; in the data set with NCI-H358 (NCI-H358, H358 cells) it was 23 nM. The half-life in data set [1] came to 1.83 h. The “stability in human liver microsomal assay” value (shortened to “stability”) in data set [1] is listed as “dramatically improved”.

In the case of `Cc1nc(N[C@H](C)c2cccc(C(F)F)c2F)c2cn(C3CCOCC3)c(=O)cc2n1` [Example I-18, reference compound], the half-inhibitory concentration (IC50) in the data set on NCI-H358 (NCI-H358, H358 cells) was 164 nM. Also, in the data set with NCI-H358 (in words, compound I-18 vs present compounds), the “activity in H358 cellular assay” value is listed as “weaker activity”. In addition, in data set [1], the half-life came out at 0.05 h and the “stability” value is given as “very poor stability”.

In the case of `Cc1nc(N[C@H](C)c2cccc(C(F)(F)F)c2C)c2cn(N3CCOCC3)c(=O)c(F)c2n1` [Example 30], the half-inhibitory concentration (IC50) is at most 15 nM on SOS1 and KRAS G12D; at most 100 nM with NCI-H358 (setting [2]); 28 nM in the data set with NCI-H358 (NCI-H358, H358 cells). Besides, in data set [1], the half-life was found to be 3.17 h. In data set [1], the “stability” value is on record as “dramatically improved”.

Take `Cc1nc(N[C@H](C)c2cccc(C(F)F)c2F)c2cn(N3CCOCC3)c(=O)c(-c3cnn(CCO)c3)c2n1` [Example 53]: the IC50 on SOS1 and KRAS G12D was at most 15 nM; with NCI-H358 (setting [2]), at most 100 nM; in the data set on NCI-H358 (NCI-H358, H358 cells) it was 60 nM. In addition, in data set [1], the half-life is 0.733 h. The “stability” value in data set [1] is on record as “dramatically improved”.

`Cc1nc(N[C@H](C)c2cccc(C(F)F)c2F)c2cn(N3CCOCC3)c(=O)c(F)c2n1` [Example 29, (R)-4-((1-(3-(difluoromethyl)-2-fluorophenyl)ethyl)amino)-8-fluoro-2-methyl-6-morpholinopyrido[4,3-d]pyrimidin-7 (6H)-one]: the concentration for half-maximal inhibition (IC50) is at most 15 nM on SOS1 and KRAS G12D; at most 100 nM with NCI-H358 (setting [2]); 49 nM in the data set with NCI-H358 (NCI-H358, H358 cells). Besides, in data set [1], the half-life was found to be 2.33 h. In addition, the “stability” value in data set [1] was “dramatically improved”.

Turning to `Cc1nc(N[C@H](C)c2cccc(C(F)F)c2F)c2cn(N3CCOCC3)c(=O)c(C3=CCN(S(C)(=O)=O)CC3)c2n1` [Example 55], the IC50 is at most 15 nM on SOS1 and KRAS G12D; 100 to 500 nM with NCI-H358 (setting [2]).

In the case of `Cc1nc(N[C@H](C)c2cccc(C(F)F)c2F)c2cn(N3CCOCC3)c(=O)c(-c3ccc(S(C)(=O)=O)nc3)c2n1` [Example 61], the concentration for half-maximal inhibition (IC50) was at most 15 nM on SOS1 and KRAS G12D; at most 100 nM in the data set on NCI-H358 (setting [2]); 31 nM in the data set on NCI-H358 (NCI-H358, H358 cells). Besides, the half-life in data set [1] was over 16.7 h. Moreover, the “stability” value in data set [1] is on record as “dramatically improved”.

Regarding `Cc1nc(N[C@H](C)c2cccc(C(F)F)c2F)c2cn(-n3ccnc3)c(=O)c(F)c2n1` [Example 86], the IC50 was 15 to 150 nM on SOS1 and KRAS G12D; 500 to 1000 nM in the data set on NCI-H358 (setting [2]).

`Cc1nc(N[C@H](C)c2cccc(C(F)F)c2F)c2cn(N3CCN(C(=O)CO)CC3)c(=O)cc2n1` [Example 13, 4-[[(1R)-1-[3-(difluoromethyl)-2-fluoro-phenyl]ethyl]amino]-6-[4-(2-hydroxyacetyl)piperazin-1-yl]-2-methyl-pyrido[4,3-d]pyrimidin-7-one]: the IC50 was at most 15 nM at SOS1 and KRAS G12D; 500 to 1000 nM in the data set with NCI-H358 (setting [2]).

For `Cc1nc(N[C@H](C)c2cccc(C(F)(F)F)c2F)c2cn(N3CCOCC3)c(=O)cc2n1` [Example 19], the half-inhibitory concentration (IC50) at SOS1 and KRAS G12D is at most 15 nM; in the data set on NCI-H358 (setting [2]), 100 to 500 nM.

With `Cc1nc(N[C@H](C)c2cccc(C(F)F)c2F)c2cn(N3CCOCC3)c(=O)c(-c3cc(C#N)ccc3F)c2n1` [Example 65], the concentration for half-maximal inhibition (IC50) lay within 15 to 150 nM at SOS1 and KRAS G12D; 100 to 500 nM in the data set with NCI-H358 (setting [2]).

On to `Cc1nc(N[C@H](C)c2cccc(C(F)F)c2F)c2cn(N3CCOCC3)c(=O)c(Br)c2n1` [Example 40, 8-bromo-4-[[(1R)-1-[3-(difluoromethyl)-2-fluoro-phenyl]ethyl]amino]-2-methyl-6-morpholino-pyrido[4,3-d]pyrimidin-7-one], for which the concentration for half-maximal inhibition (IC50) is at most 15 nM on SOS1 and KRAS G12D; at most 100 nM in the data set on NCI-H358 (setting [2]).

Take `Cc1nc(N[C@H](C)c2cccc(C(F)F)c2F)c2cn(N3CCOCC3)c(=O)c(-c3ccc(S(C)(=O)=O)cc3)c2n1` [Example 43, 4-[[(1R)-1-[3-(difluoromethyl)-2-fluoro-phenyl]ethyl]amino]-2-methyl-8-(4-methylsulfonylphenyl)-6-morpholino-pyrido[4,3-d]pyrimidin-7-one]: the IC50 at SOS1 and KRAS G12D was at most 15 nM; in the data set with NCI-H358 (setting [2]), at most 100 nM; in the data set with NCI-H358 (NCI-H358, H358 cells) it was 53 nM. Further, the half-life in data set [1] is over 16.7 h. Moreover, the “stability” value in data set [1] is reported as “dramatically improved”.

`Cc1nc(N[C@H](C)c2cccc(C(F)F)c2F)c2cn(N3CCOCC3)c(=O)c(-c3ccc[nH]c3=O)c2n1` [Example 51]: the IC50 is at most 15 nM at SOS1 and KRAS G12D; over 1000 nM with NCI-H358 (setting [2]).

As to `Cc1nc(N[C@H](C)c2cccc(C(F)F)c2F)c2cn(N(C)C)c(=O)cc2n1` [Example 34, 4-[[(1R)-1-[3-(difluoromethyl)-2-fluoro-phenyl]ethyl]amino]-6-(dimethylamino)-2-methyl-pyrido[4,3-d]pyrimidin-7-one], the IC50 is at most 15 nM at SOS1 and KRAS G12D; 100 to 500 nM in the data set with NCI-H358 (setting [2]).

Turning to `Cc1nc(N[C@H](C)c2cccc(C(F)(F)CO)c2)c2cn(N3CCOCC3)c(=O)cc2n1` [Example 18], the IC50 is at most 15 nM at SOS1 and KRAS G12D; 500 to 1000 nM in the data set with NCI-H358 (setting [2]).

`Cc1nc(N[C@H](C)c2cccc(C(F)F)c2F)c2cn(N3CCCC3)c(=O)cc2n1` [Example 35]: the IC50 is at most 15 nM at SOS1 and KRAS G12D; 100 to 500 nM in the data set with NCI-H358 (setting [2]).

Turning to `Cc1nc(N[C@H](C)c2cccc(C(F)F)c2F)c2cn(N3CCOCC3)c(=O)cc2n1` [Example 1, 4-[[(1R)-1-[3-(difluoromethyl)-2-fluoro-phenyl]ethyl]amino]-2-methyl-6-morpholino-pyrido[4,3-d]pyrimidin-7-one], the concentration for half-maximal inhibition (IC50) is at most 15 nM on SOS1 and KRAS G12D; at most 100 nM with NCI-H358 (setting [2]); 40 nM in the data set on NCI-H358 (NCI-H358, H358 cells). In addition, the half-life in data set [1] turned out to be 1.4 h. Further, the “stability” value in data set [1] was “dramatically improved”.
